Measurements as given in ChEMBL document CHEMBL1153640, “Selective naphthalene H(3) receptor inverse agonists with reduced potential to induce phospholipidosis and their quinoline analogs” (Bioorg Med Chem Lett, 2009).
Each block holds one molecule with its values, some of them ahead of it.

How the values were obtained:
Histamine H3 receptor [1] = target: T1, Histamine H3 receptor (Homo sapiens, UniProt Q9Y5N1); assay: Inhibition of human histamine H3 expressed in CHO cells by saturation binding experiment; assay type: cell-based
T1 sequence (Q9Y5N1 whole entry): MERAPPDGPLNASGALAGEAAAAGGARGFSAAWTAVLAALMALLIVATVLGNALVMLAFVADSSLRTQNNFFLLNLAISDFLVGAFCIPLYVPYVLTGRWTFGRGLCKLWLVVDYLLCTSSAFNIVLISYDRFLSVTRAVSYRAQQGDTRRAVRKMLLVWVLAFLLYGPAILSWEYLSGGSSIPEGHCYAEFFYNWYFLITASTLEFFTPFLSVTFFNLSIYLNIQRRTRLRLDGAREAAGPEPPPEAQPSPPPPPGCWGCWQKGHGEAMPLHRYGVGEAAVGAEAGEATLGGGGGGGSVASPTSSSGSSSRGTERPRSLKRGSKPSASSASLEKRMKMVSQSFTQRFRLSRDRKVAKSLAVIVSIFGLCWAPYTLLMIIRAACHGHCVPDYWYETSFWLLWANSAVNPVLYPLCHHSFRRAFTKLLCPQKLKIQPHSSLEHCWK

[2] = Dissociation constant, pKa of the compound; assay type: physicochemical
Phospholipidosis = assay: In vitro phospholipidosis in fibroblasts; assay type: ADME, cell-based; conditions: fibroblast
Histamine H3 receptor [3] = target: T1, Histamine H3 receptor; assay: Inverse agonist activity at human histamine H3 receptor expressed in CHO cells by [35S]GTPgammaS binding assay; assay type: functional, cell-based
[4] = target: Histamine H1 receptor (Homo sapiens) (UniProt P35367); assay: Inhibition of human histamine H1 receptor at 3 uM
Chain of Histamine H1 receptor (Homo sapiens) (P35367 whole entry): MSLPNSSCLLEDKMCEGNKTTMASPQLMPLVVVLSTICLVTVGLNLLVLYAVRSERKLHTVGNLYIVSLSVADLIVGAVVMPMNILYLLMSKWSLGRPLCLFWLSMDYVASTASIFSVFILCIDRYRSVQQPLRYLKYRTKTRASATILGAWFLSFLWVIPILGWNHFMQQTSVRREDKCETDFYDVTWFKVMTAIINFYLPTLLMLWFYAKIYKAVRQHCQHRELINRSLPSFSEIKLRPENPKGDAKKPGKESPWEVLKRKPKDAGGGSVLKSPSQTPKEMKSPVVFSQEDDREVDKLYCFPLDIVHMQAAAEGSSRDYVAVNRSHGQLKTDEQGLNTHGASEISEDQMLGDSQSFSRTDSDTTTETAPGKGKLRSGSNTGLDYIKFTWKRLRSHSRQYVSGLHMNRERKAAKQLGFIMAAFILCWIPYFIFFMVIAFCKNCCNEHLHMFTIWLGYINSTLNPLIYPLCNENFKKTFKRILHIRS

[5] = target: Histamine H2 receptor (Homo sapiens) (UniProt P25021); assay: Inhibition of human histamine H2 receptor at 3 uM
Chain of Histamine H2 receptor (Homo sapiens) (P25021 whole entry): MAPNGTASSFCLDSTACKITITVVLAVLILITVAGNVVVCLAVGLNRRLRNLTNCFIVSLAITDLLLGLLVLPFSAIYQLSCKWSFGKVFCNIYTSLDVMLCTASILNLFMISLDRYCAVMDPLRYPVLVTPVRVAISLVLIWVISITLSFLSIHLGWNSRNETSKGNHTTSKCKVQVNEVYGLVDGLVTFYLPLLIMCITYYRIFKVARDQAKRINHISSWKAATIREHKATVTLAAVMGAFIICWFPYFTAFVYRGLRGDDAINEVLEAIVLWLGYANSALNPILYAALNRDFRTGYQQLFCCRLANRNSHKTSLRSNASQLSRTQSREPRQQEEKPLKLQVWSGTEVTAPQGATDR

[6] = target: Histamine H4 receptor (Homo sapiens) (UniProt Q9H3N8); assay: Inhibition of human histamine H4 receptor at 3 uM
Cytochrome P450 3A4 = Cytochrome P450 3A4 (Homo sapiens, UniProt P08684); assay: Inhibition of CYP3A4; assay type: ADME
Chain of Cytochrome P450 3A4 (P08684 whole entry): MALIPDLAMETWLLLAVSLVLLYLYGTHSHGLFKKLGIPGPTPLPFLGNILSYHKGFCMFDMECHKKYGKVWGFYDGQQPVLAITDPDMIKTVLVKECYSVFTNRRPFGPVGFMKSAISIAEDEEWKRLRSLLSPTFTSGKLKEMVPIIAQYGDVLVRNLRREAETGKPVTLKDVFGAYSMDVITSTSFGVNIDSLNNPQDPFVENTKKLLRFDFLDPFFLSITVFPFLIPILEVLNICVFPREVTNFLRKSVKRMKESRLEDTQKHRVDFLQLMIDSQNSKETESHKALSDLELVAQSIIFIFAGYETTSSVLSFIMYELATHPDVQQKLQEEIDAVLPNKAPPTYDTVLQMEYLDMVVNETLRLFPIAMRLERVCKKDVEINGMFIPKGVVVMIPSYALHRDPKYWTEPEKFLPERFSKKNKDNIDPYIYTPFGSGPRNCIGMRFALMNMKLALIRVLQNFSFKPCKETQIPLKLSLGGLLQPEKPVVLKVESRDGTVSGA

Cytochrome P450 2D6 = Cytochrome P450 2D6 (Homo sapiens, UniProt P10635); assay: Inhibition of CYP2D6; assay type: ADME
Chain of Cytochrome P450 2D6 (P10635 whole entry): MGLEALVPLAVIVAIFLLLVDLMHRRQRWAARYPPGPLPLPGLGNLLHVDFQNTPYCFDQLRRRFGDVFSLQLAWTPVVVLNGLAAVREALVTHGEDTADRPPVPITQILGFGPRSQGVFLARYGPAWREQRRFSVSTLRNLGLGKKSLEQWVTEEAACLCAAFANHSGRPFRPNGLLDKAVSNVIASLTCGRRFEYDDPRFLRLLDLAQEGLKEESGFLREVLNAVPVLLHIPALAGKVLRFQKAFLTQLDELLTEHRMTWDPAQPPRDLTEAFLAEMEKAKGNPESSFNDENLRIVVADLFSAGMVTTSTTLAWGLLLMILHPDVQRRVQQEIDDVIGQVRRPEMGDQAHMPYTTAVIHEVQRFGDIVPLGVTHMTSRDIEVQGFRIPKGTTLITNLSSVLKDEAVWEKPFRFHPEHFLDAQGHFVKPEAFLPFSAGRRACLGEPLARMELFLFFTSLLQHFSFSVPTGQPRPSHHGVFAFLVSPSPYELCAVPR

Cytochrome P450 1A2 = target: T2, Cytochrome P450 1A2 (Homo sapiens, UniProt P05177); assay: Inhibition of CYP1A2; assay type: ADME
T2 sequence (P05177 whole entry): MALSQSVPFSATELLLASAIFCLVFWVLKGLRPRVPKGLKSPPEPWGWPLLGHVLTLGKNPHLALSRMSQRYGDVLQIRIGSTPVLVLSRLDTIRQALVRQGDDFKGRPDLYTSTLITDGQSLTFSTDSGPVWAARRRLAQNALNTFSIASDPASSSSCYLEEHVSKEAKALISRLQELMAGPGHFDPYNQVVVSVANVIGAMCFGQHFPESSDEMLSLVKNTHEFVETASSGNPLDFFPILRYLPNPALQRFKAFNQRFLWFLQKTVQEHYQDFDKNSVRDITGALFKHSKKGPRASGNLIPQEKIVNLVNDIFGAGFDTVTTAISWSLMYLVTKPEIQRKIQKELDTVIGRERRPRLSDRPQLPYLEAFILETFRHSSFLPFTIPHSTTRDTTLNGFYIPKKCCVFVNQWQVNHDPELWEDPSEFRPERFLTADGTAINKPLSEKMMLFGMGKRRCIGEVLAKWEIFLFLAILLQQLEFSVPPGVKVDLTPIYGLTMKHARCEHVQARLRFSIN

Cytochrome P450 2C9 = Cytochrome P450 2C9 (Homo sapiens, UniProt P11712); assay: Inhibition of CYP2C9; assay type: ADME
Chain of Cytochrome P450 2C9 (P11712 whole entry): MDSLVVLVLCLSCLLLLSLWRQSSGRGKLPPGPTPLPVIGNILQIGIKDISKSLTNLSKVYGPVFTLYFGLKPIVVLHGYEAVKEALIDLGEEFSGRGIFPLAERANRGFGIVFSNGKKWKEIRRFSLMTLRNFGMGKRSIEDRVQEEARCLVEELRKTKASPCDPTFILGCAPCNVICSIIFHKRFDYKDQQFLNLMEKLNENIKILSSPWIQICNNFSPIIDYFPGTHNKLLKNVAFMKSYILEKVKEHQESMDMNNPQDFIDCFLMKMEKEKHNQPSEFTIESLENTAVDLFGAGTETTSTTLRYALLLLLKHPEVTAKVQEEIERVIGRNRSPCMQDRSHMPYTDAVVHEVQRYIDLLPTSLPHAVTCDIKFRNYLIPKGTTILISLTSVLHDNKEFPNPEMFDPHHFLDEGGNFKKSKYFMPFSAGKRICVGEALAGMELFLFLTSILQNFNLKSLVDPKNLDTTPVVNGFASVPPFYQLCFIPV

Cytochrome P450 2C19 = Cytochrome P450 2C19 (Homo sapiens, UniProt P33261); assay: Inhibition of CYP2C19; assay type: ADME
Chain of Cytochrome P450 2C19 (P33261 whole entry): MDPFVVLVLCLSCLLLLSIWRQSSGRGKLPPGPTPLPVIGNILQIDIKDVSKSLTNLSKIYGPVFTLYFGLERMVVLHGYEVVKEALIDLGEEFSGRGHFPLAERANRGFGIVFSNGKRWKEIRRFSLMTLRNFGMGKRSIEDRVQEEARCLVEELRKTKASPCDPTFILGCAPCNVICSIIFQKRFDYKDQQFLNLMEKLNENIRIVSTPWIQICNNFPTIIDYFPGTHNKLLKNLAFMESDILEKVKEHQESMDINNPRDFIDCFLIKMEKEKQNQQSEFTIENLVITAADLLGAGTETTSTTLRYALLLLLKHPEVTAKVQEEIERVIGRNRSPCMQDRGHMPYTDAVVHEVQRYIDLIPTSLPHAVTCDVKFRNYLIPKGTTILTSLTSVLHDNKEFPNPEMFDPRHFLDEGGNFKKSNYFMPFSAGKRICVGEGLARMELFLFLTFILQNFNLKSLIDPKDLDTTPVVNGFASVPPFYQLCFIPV

[7] = Lipophilicity, log D at pH 7.4; assay type: physicochemical; conditions: buffer
[8] = Metabolic stability in rat liver microsomes assessed as clearance per mg of protein; assay type: ADME, Microsome
[9] = Metabolic stability in human liver microsomes assessed as clearance per mg of protein; assay type: ADME, Microsome
[10] = test system: Salmonella enterica subsp. enterica; assay: Toxicity in Salmonella Typhimurium assessed as increase in number of revertant colonies by AMES microsuspension assay; assay type: organism-based; conditions: salmonella enterica subsp. enterica serovar typhimurium
[11] = Genotoxicity in mammalian cells assessed as increase in number of micronucleated cells by micronucleus test; assay type: cell-based
[12] = Solubility in 10 mM DMSO by lyophilizated solubility assay; assay type: physicochemical
[13] = Membrane permeability by PAMPA; assay type: ADME; conditions: read-out: permeability

- Ki (Histamine H3 receptor [1]): 62 nM
- pKa [2]: 9.4
Structure (SMILES): COC1CCN(C(=O)c2ccc3cc(OC4CCN(C(C)C)CC4)ccc3c2)CC1

- Ki (Histamine H3 receptor [1]): 125 nM
- pKa [2]: 9.5
Structure (SMILES): COC1CCN(C(=O)c2ccc3cc(OC4CCN(C(C)C)CC4)ccc3n2)CC1

- Ki (Histamine H3 receptor [1]): 40 nM
- EC50 (Histamine H3 receptor [3]): 17 nM
- inhibition [4]: 1.6%
- inhibition [5]: -9.9%
- inhibition [6]: 0%
- IC50 (Cytochrome P450 3A4): > 41000 nM
- IC50 (Cytochrome P450 2D6): > 41000 nM
- IC50 (Cytochrome P450 1A2): > 41000 nM
- IC50 (Cytochrome P450 2C9): > 41000 nM
- IC50 (Cytochrome P450 2C19): > 41000 nM
- logD [7]: 0.6
- microsomal CLint [8]: 3 µL/min/mg
- microsomal CLint [9]: 23 µL/min/mg
- pKa [2]: 9.3
- solubility [12]: > 558 µg/mL
- Papp [13]: 2.5 ×10⁻⁶ cm/s
Structure (SMILES): CC(C)N1CCC(Oc2ccc3cc(C(=O)N4CCOCC4)ccc3c2)CC1
- Phospholipidosis (Phospholipidosis): Not Active
- Activity [10]: Non-toxic
- Activity [11]: Non-toxic

- Ki (Histamine H3 receptor [1]): 103 nM
- pKa [2]: 9.6
Structure (SMILES): O=C(c1ccc2cc(OCCCN3CCCCC3)ccc2c1)N1CCC(CO)CC1

- Ki (Histamine H3 receptor [1]): 15 nM
- pKa [2]: 9.71
Structure (SMILES): CC(C)N1CCC(Oc2ccc3cc(C(=O)N4CCCC4C)ccc3c2)CC1 (stereo not given)

- Ki (Histamine H3 receptor [1]): 119 nM
- pKa [2]: 9.4
Structure (SMILES): O=C(c1ccc2cc(OCCCN3CCCCC3)ccc2n1)N1CCC1

- Ki (Histamine H3 receptor [1]): 30 nM
- pKa [2]: 9.57
Structure (SMILES): COC1CCN(C(=O)c2ccc3cc(OCCCN4CCCCC4)ccc3c2)CC1

- Ki (Histamine H3 receptor [1]): 87 nM
- pKa [2]: 9.5
Structure (SMILES): CC(C)N1CCC(Oc2ccc3nc(C(=O)N4CCC[C@H]4C#N)ccc3c2)CC1

- Ki (Histamine H3 receptor [1]): 36 nM
- inhibition [4]: -4.5%
- inhibition [5]: 4.1%
- inhibition [6]: 0%
- pKa [2]: 9.8
Structure (SMILES): CC(C)CN1CCC(Oc2ccc3cc(C(=O)N4CCC(C)CC4)ccc3c2)CC1

- Ki (Histamine H3 receptor [1]): 62 nM
- pKa [2]: 9.5
Structure (SMILES): CC(C)N1CCC(Oc2ccc3nc(C(=O)N4CCC4)ccc3c2)CC1

- Ki (Histamine H3 receptor [1]): 154 nM
- pKa [2]: 9.6
Structure (SMILES): CC(C)N1CCC(Oc2ccc3cc(C(=O)N4CCC(CO)CC4)ccc3c2)CC1

- Ki (Histamine H3 receptor [1]): 7 nM
- EC50 (Histamine H3 receptor [3]): 200 nM
- inhibition [5]: -0.3%
- inhibition [6]: 0%
- IC50 (Cytochrome P450 3A4): > 12000 nM
- IC50 (Cytochrome P450 2D6): > 12000 nM
- IC50 (Cytochrome P450 1A2): > 12000 nM
- IC50 (Cytochrome P450 2C9): > 12000 nM
- IC50 (Cytochrome P450 2C19): > 12000 nM
- logD [7]: 2.47
- microsomal CLint [8]: 32 µL/min/mg
- microsomal CLint [9]: 33 µL/min/mg
- pKa [2]: 9.86
- solubility [12]: > 543 µg/mL
- Papp [13]: 2.6 ×10⁻⁶ cm/s
Structure (SMILES): CC1CCN(C(=O)c2ccc3cc(OCCCN4CCCCC4)ccc3c2)CC1
- Activity [10]: Non-toxic
- Activity [11]: Non-toxic

- Ki (Histamine H3 receptor [1]): 34 nM
- inhibition [4]: 0.9%
- inhibition [5]: -8%
- inhibition [6]: 0%
- pKa [2]: 9.6
Structure (SMILES): CC1CCN(C(=O)c2ccc3cc(OC4CCN(C(C)C)CC4)ccc3c2)CC1

- Ki (Histamine H3 receptor [1]): 30 nM
- pKa [2]: 8.97
Structure (SMILES): CC(C)N1[C@@H]2CC(Oc3ccc4nc(C(=O)N5CCOCC5)ccc4c3)CC[C@H]1C2 (stereo not given in full)

- Ki (Histamine H3 receptor [1]): 238 nM
- pKa [2]: 9.5
Structure (SMILES): CC(C)N1CCC(Oc2ccc3nc(C(=O)N4CCOCC4)ccc3c2)CC1

- Ki (Histamine H3 receptor [1]): 2000 nM
- pKa [2]: 7.8
Structure (SMILES): CC1CCN(C(=O)c2ccc3cc(OCCCN4CCOCC4)ccc3c2)CC1

- pKa [2]: 9.9
Structure (SMILES): CC1CCN(C(=O)c2ccc3cc(OCCC4CCCN4C)ccc3c2)CC1 (stereo not given)

- Ki (Histamine H3 receptor [1]): 234 nM
- pKa [2]: 9.4
Structure (SMILES): CC1CCN(C(=O)c2ccc3cc(OC4CCN(C(C)C)C4)ccc3c2)CC1 (stereo not given)

- Ki (Histamine H3 receptor [1]): 300 nM
- pKa [2]: 9.7
Structure (SMILES): CC1CCN(C(=O)c2ccc3cc(OCCCN4CCCCC4)ccc3n2)CC1
